One may read the inhibition as the percentage by which the read-out fell short of the control. Higher therefore signals a strong effect.

Experimental findings from patent US10335503B2, “Compound that specifically binds to AMPA receptor” (Public University Corporation Yokohama City University, priority 2015, dated 2019) are described below.

One experiment concerns the target α1A-Adrenergic (Homo sapiens, UniProt P35348). Nature of the experiment: Receptor binding panel: α1A-Adrenergic. To be noted: K-2 at 1 × 10^−7 mol/L.
In another experiment the target is α1B-Adrenergic (Homo sapiens, UniProt P35368). Nature of the experiment: Receptor binding panel: α1B-Adrenergic. To be noted: K-2 at 1 × 10^−7 mol/L.
Chain of α1B-Adrenergic (P35368 whole entry): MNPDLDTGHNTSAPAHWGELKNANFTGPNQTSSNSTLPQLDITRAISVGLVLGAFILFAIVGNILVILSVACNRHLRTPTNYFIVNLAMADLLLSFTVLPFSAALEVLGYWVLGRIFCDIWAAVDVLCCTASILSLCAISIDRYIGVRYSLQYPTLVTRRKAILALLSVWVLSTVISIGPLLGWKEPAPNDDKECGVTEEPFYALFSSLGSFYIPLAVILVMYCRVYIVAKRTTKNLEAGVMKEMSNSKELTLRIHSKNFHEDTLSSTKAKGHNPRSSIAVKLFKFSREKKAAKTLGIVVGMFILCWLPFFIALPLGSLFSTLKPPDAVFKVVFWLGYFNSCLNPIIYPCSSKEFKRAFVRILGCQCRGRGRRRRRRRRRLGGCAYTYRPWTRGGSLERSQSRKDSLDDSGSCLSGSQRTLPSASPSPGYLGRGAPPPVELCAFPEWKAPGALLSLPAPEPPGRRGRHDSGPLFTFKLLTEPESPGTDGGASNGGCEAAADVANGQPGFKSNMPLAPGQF
Another experiment deals with α2C-Adrenergic (Homo sapiens, UniProt P18825). In words: Receptor binding panel: α2C-Adrenergic. The note with it: K-2 at 1 × 10^−7 mol/L.
Chain of α2C-Adrenergic (P18825 whole entry): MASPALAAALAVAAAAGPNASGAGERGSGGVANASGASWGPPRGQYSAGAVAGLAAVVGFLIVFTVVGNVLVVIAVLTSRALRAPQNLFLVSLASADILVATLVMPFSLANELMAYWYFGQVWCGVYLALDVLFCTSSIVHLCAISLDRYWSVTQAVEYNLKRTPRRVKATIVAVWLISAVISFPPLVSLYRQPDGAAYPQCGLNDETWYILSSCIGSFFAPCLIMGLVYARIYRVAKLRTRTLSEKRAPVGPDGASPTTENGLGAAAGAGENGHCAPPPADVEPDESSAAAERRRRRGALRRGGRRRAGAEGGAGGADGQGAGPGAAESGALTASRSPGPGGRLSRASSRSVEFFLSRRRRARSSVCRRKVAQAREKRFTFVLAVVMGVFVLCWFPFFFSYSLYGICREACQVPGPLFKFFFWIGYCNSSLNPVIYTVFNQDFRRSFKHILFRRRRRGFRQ
For experiment [1], the system named is Ca channel (Type L, Dihydropyridine). In words: Receptor binding panel: Ca channel (Type L, Dihydropyridine). The note with it: K-2 at 1 × 10^−7 mol/L.
Another experiment addresses Ca channel (Type N) (Homo sapiens, UniProt Q00975). In words: Receptor binding panel: Ca channel (Type N). To be noted: K-2 at 1 × 10^−7 mol/L.
The next experiment deals with Endothelin ETA (Homo sapiens, UniProt P25101). In words: Receptor binding panel: Endothelin ETA. To be noted: K-2 at 1 × 10^−7 mol/L.
Chain of Endothelin ETA (P25101 21-427): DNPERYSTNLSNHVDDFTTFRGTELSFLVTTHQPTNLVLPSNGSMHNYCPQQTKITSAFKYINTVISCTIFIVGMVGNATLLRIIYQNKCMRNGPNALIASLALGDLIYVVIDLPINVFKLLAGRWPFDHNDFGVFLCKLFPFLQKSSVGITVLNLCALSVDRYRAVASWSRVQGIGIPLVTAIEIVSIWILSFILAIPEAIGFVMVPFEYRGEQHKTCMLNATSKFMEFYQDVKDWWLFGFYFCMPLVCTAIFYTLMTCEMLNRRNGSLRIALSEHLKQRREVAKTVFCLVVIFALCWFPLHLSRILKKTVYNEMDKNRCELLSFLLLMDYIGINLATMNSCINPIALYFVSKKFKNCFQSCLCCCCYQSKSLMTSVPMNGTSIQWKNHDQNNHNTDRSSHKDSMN
For experiment [2], the system named is Glycine (Strychnine sensitive). Nature of the experiment: Receptor binding panel: Glycine (Strychnine sensitive). To be noted: K-2 at 1 × 10^−7 mol/L.
The next experiment has as its target Neurokinin NK3 (Homo sapiens, UniProt P29371). In words: Receptor binding panel: Neurokinin NK3. To be noted: K-2 at 1 × 10^−7 mol/L.
Another experiment deals with Opiate δ (Homo sapiens, UniProt P41143). In words: Receptor binding panel: Opiate δ. The note with it: K-2 at 1 × 10^−7 mol/L.
Chain of Opiate δ (P41143 whole entry): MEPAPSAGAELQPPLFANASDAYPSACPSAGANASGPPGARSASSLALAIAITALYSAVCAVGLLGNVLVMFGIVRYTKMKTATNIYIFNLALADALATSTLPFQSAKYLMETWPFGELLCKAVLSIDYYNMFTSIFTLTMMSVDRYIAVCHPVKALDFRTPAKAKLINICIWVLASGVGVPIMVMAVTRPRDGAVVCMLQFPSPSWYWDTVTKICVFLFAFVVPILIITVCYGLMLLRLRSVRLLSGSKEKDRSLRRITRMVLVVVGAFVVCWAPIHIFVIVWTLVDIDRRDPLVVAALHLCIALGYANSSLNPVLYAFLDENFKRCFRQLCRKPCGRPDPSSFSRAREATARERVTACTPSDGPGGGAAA
The next experiment deals with Opiate κ (Homo sapiens, UniProt P41145). In words: Receptor binding panel: Opiate κ. To be noted: K-2 at 1 × 10^−7 mol/L.
Chain of Opiate κ (P41145 whole entry): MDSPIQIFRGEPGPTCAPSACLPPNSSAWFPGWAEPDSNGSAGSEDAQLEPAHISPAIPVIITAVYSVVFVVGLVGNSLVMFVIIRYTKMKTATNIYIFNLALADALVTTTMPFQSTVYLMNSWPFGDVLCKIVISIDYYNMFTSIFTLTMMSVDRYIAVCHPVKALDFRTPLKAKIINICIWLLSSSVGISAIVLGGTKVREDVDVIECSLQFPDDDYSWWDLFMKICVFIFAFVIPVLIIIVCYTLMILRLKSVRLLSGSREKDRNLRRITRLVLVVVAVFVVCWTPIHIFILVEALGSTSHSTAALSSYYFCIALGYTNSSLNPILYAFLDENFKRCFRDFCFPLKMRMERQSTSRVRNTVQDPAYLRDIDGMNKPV
The target in the next experiment is Vasopressin V1B (Homo sapiens, UniProt P47901). In words: Receptor binding panel: Vasopressin V1B. To be noted: K-2 at 1 × 10^−7 mol/L.
Chain of Vasopressin V1B (P47901 whole entry): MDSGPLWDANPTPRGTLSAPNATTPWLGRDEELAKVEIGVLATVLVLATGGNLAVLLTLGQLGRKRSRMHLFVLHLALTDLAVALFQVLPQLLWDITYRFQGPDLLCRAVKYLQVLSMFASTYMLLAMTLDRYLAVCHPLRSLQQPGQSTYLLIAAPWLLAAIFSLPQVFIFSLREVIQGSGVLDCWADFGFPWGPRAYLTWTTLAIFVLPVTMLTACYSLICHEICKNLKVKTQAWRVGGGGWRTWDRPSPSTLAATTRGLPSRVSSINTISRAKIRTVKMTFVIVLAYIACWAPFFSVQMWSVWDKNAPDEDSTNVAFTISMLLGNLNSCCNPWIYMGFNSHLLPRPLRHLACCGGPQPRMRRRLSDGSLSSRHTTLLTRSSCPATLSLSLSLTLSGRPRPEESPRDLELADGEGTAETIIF
The test system of the next experiment is AMPA receptor. Nature of the experiment: Biochemical experiment: biotinylation and quantitative Western blot of AMPA receptor after administration to living rat. The class given is in vivo. Here is the method: In the LC-MS/MS experiment, all of the synthesized compounds were dissolved in 100% DMSO so as to have a concentration of 2.5 mM, diluted with physiological saline water immediately before administration (PEPA (1.2 pmol/g), M-1 (12 pmol/g), K-2 (12 pmol/g), M-3 (60 pmol/g), and M-2 (240 pmol/g)), and administered by the parenteral route. In the electrophysiological experiment, PEPA and K-2 were dissolved in 100% DMSO so as to have a concentration of 150 mM, diluted with ACSF as a reflux liquid immediately before the experiment so as to have a concentration of 150 μM and then used. In the biochemical experiment and the PET blocking experiment, K-2 was dissolved in 50% DMSO so as to have a concentration of 2.5 mM and 25 mM, and then administered to a rat at an amount of administration of 1 μl/weight (g) by the parenteral route so as to be 0.5 mg/kg and 5 mg/kg.
The LC-MS/MS experiment and the biochemical experiment were performed after a rat was allowed to get to sleep by inhalation of isoflurane while anesthesia was maintained using a dedicate carburetor at a concentration of 1.5%. […] In the LC-MS/MS experiment, the hippocampus region was collected in a thickness of approximately 2 mm from the extracted whole brain using Brain matrix (ASI instruments, U.S.), the tissue weight thereof was measured, and then the hippocampus region was put into a 1.5-ml conical tube. […]
A general note: A western blot detects proteins with antibodies after separation by electrophoresis.

Chain of α1A-Adrenergic (P35348 whole entry): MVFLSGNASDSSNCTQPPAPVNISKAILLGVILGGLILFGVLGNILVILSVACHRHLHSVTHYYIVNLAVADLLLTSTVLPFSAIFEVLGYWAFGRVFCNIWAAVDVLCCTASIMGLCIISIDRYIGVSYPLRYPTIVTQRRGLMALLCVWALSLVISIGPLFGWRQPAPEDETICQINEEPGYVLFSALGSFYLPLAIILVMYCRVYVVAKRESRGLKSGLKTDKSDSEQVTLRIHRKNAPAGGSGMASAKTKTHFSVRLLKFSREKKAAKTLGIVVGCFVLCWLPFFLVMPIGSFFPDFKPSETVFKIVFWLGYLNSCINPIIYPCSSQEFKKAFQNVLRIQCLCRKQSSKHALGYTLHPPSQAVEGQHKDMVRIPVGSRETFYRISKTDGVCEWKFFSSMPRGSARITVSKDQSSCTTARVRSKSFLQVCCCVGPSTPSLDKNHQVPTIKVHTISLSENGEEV
Chain of Neurokinin NK3 (P29371 whole entry): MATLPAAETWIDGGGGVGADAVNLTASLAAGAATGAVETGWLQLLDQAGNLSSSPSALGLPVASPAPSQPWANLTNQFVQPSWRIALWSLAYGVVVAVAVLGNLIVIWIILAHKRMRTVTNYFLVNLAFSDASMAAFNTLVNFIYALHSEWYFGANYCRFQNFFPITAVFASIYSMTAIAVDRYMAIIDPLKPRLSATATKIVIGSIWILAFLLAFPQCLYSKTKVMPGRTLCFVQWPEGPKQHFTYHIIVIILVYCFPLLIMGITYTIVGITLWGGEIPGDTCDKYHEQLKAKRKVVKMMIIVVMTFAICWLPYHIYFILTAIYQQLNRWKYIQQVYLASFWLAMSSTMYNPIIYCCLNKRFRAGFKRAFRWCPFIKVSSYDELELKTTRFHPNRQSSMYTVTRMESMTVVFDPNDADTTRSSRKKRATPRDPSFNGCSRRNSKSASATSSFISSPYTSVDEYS

For the compound `CN(CCSc1cc(F)c(OCC(N)=O)c(F)c1)S(=O)(=O)c1ccccc1` [K-2, {4-[2-(benzenesulfonyl-methyl-amino)-ethylsulfanil]-2,6-difluoro-phenoxy}-acetamide], the inhibition at 0.1 µM was found to be 0.21% on α1A-Adrenergic; 0% on α1B-Adrenergic; 5.82% at α2C-Adrenergic; 0.31% at Ca channel (Type N); 1.81% on Endothelin ETA; 0% on Neurokinin NK3. In addition, the inhibition at 0.1 µM on Opiate δ was determined as 0.3%; on Opiate κ, 0%; at Vasopressin V1B it was 1.48%. For the same compound, the “Inhibition (%)” value in [1] worked out at 0.53%; in experiment [2], 8.46%. Also, in the experiment with AMPA receptor (5 mg/kg of K-2, hippocampus, vs 50% DMSO), the “AMPA receptor presented on the surface of the cell membrane” value was 136%±14. The “change in the total amount of the AMPA receptors” value with AMPA receptor (5 mg/kg of K-2, same animal) is “not recognized”.
